Measured values taken from patent publication US11718628B2, “SREBP inhibitors comprising a 6-membered central ring” (Capulus Therapeutics, LLC, priority 2018, dated 2023).
Converted amounts (≈) assume the structure as drawn.

Assays:
[1] = Half-life in human liver microsomes; format: in vitro ADME; details: human, liver microsomes, NADPH, 37° C., read-out: G: half-life human liver microsomes
Experimental: (§1) Half-life Human Microsomes: Compounds were evaluated for stability in human liver microsomes. A 10 mM stock solution of the compound being evaluated was prepared in DMSO and diluted with water:acetonitrile (1:1) to a concentration of 1 mM. A working concentration of 100 μM was prepared by further dilution with water:acetonitrile (1:1). To make the preincubation mixture, 2.5 μL of the diluted compound was combined with 75 μL of human liver microsomes at 3.33 mg/mL, and 85 μL of 100 mM potassium phosphate buffer, and this mixture was pre-incubated for 10 min at 37° C. To make the 60 minute mixture without cofactor, 32.5 μL of the preincubation mixture was combined with 17.5 μL of 100 mM potassium phosphate buffer and incubated for 60 min at 37° C. To make the 0 min sample with cofactor (NADPH), 16.25 μL of the preincubation mixture was combined with 200 μL of acetonitrile containing internal standard and 8.75 μL of cofactor (NADPH). To make the incubation mixture, 62 μL of cofactor (2.85 mM) was combined with the remaining incubation mixture, and incubated for 60 min at 37° C. To prepare the sample mixture to be evaluated, 25 μL incubation mixture was combined with 200 μL of acetonitrile containing internal standard and vortexed for 5 min at 1200 rpm, then centrifuged for 10 min at 4000 rpm. The supernatant was diluted 2 fold with water and injected on LC-MS/MS. The sample mixture was evaluated by LC-MS/MS using 10 mM ammonium acetate with 0.1% FA as the aqueous mobile phase, and methanol as the organic mobile phase.

[2] = Half-life in mouse liver microsomes; format: in vitro ADME; details: mouse, liver microsomes, read-out: H: half-life of mouse liver microsomes
Experimental: as §1
Half-life Mouse Microsomes: Compounds were evaluated in mouse liver microsomes following a similar procedure as described above for human liver microsomes. A similar procedure could be used to evaluate compounds in rat liver microsomes.

Kinetic solubility = format: physicochemical; details: aqueous buffer, kinetic from dmso stock, pH 7.4 buffer, room temperature, 1.0% DMSO, read-out: I: kinetic solubility class
Experimental: Kinetic Solubility Procedure: A 10 mM stock solution of a compound was prepared in DMSO, then 4 μL of the stock was added to a deep well plate containing 396 μL of pH 7.4 buffer. The sample plate was vortexed at 800 rpm for 24 h on thermomixer at room temperature. The plate was sealed well during the incubation process. The DMSO content in the sample was 1.0%. The concentration of the evaluated compound in the final incubation was 100 μM. At the end of the incubation period, the sample plate was centrifuged at 4000 rpm for 10 min and analyzed in LC-UV against a calibration curve (CC). Values <10 μg/mL=Low; 10 to 60 μg/mL=Medium; >60 μg/mL=High.

Structure (SMILES)	half-life at 1 µM [1]	half-life at 1 µM [2]	solubility kinetic at 24 h (Kinetic solubility)
CC(C)(C)c1cc(-c2cncc(-c3ccc(C(=O)N4CCC(O)CC4)cc3Cl)c2F)ccn1	9.52 min	39.2 min	10 to 60 µg/mL (≈ 21.4 to 128 µM)
CC(C)(C)c1cc(-c2cncc(-c3ccc(NC(=O)OCCN4CCCC4)cc3Cl)c2)ccn1	53.2 min	14.4 min	10 to 60 µg/mL (≈ 20.9 to 125 µM)
COc1ncc(-c2ccc(C(=O)N3CCC(O)CC3)cc2Cl)cc1-c1ccnc(C(C)(C)C)c1	16.1 min	38.5 min	10 to 60 µg/mL (≈ 20.8 to 125 µM)
Cc1ncc(-c2ccc(C(=O)N3CCC(O)CC3)cc2Cl)cc1-c1ccnc(C(C)(C)C)c1	7.8 min	41.7 min	10 to 60 µg/mL (≈ 21.6 to 129 µM)
O=C(c1ccc(-c2cncc(-c3ccnc(C4CC4)c3)c2)c(Cl)c1)N1CCC(F)C(O)C1 (stereo not drawn)	20.5 min	68.3 min	< 10 µg/mL
O=C(Nc1ccc(-c2cncc(-c3ccnc4c3OCCO4)c2)c(Cl)c1)OC1CC1	9.94 min	16.4 min	< 10 µg/mL
O=C(c1ccc(-c2cncc(-c3ccnc(C4CC4)c3)c2)c(Cl)c1)N1CCC(F)CC1	7.28 min	12.4 min	10 to 60 µg/mL (≈ 22.9 to 138 µM)
O=C(c1ccc(-c2cncc(-c3ccnc(C4CC4)c3)c2)c(Cl)c1)N1CCC[C@H]1CO	16.2 min	66.7 min	10 to 60 µg/mL (≈ 23 to 138 µM)
O=C(c1ccc(-c2cncc(-c3ccnc(C4CC4)c3)c2)c(Cl)c1)N1CC[C@H](O)C1	39.2 min	87.2 min	10 to 60 µg/mL (≈ 23.8 to 143 µM)
O=C(c1ccc(-c2cncc(-c3ccnc(C4CC4)c3)c2)c(Cl)c1)N1CC2CCC(C1)C2O (stereo not drawn)	21.3 min	42.4 min	10 to 60 µg/mL (≈ 21.7 to 130 µM)
CC(C)(C)c1cc(-c2cncc(-c3ccc(C(=O)N4CCC(O)C(O)CC4)cc3Cl)c2)ccn1 (stereo not drawn)	27.7 min	120 min	10 to 60 µg/mL (≈ 20.8 to 125 µM)
CS(=O)(=O)Nc1ccc(-c2cncc(-c3ccnc4c3OCCO4)c2)c(Cl)c1	37.4 min	104 min	< 10 µg/mL
CC(C)OC(=O)Nc1ccc(-c2cncc(-c3ccnc(C(C)(C)O)c3)c2)c(Cl)c1	120 min	120 min	< 10 µg/mL
CC(C)(O)c1cc(-c2cncc(-c3ccc(NS(C)(=O)=O)cc3Cl)c2)ccn1	116 min	120 min	< 10 µg/mL
CC(C)OC(=O)Nc1ccc(-c2cncc(-c3ccnc(C4(F)CCC4)c3)c2)c(Cl)c1	55.9 min	97.9 min	< 10 µg/mL
CC(C)(CF)c1cc(-c2cncc(-c3ccc(C(=O)N4CCC(O)CC4)cc3Cl)c2)ccn1	41.3 min	77.5 min	10 to 60 µg/mL (≈ 21.4 to 128 µM)
CC(C)(C)c1cc(-c2cncc(-c3ccc(C(=O)N4CCC(=O)C(F)C4)cc3Cl)c2)ccn1 (stereo not drawn)	11.2 min	1.94 min	10 to 60 µg/mL (≈ 21.5 to 129 µM)
CC(C)(C)c1cc(-c2cncc(-c3ccc(C(=O)N4CCC[C@@H]4C(C)(C)O)cc3Cl)c2)ccn1	14 min	64.3 min	10 to 60 µg/mL (≈ 20.9 to 126 µM)
CC(C)(C)c1cc(-c2cncc(-c3ccc(C(=O)N4CCC[C@H]4C(C)(C)O)cc3Cl)c2)ccn1	16.8 min	27.4 min	10 to 60 µg/mL (≈ 20.9 to 126 µM)
CC(C)(C)c1cc(-c2cncc(-c3ccc(C(=O)N4CCC(O)C(F)C4)cc3Cl)c2)ccn1 (stereo not drawn)	120 min	98.5 min	10 to 60 µg/mL (≈ 21.4 to 128 µM)
CC1CC(O)CC(C)N1C(=O)c1ccc(-c2cncc(-c3ccnc(C(C)(C)C)c3)c2)c(Cl)c1 (stereo not drawn)	6.33 min	47.8 min	10 to 60 µg/mL (≈ 20.9 to 126 µM)
CC(C)(C)c1cc(-c2cncc(-c3ccc(C(=O)N4CCC(O)(O)C(F)(F)C4)cc3Cl)c2)ccn1	43.7 min	32.5 min	10 to 60 µg/mL (≈ 19.9 to 120 µM)
O=C(c1ccc(-c2cncc(-c3ccnc(C4(O)CCC4)c3)c2)c(Cl)c1)N1CCC(O)CC1	76.7 min	120 min	10 to 60 µg/mL (≈ 21.6 to 129 µM)

Structure (SMILES)	half-life at 1 µM [1]	half-life at 1 µM [2]	solubility kinetic at 24 h (Kinetic solubility)
CC(C)(C)c1cc(-c2cncc(-c3ccc(C(=O)N(CCCO)CCCO)cc3Cl)c2)ccn1	9.51 min	40.4 min	10 to 60 µg/mL (≈ 20.7 to 124 µM)
O=C(c1ccc(-c2cncc(-c3ccnc(C4(F)CCC4)c3)c2)c(Cl)c1)N1CCC(O)CC1	32.3 min	54.4 min	10 to 60 µg/mL (≈ 21.5 to 129 µM)
CC(C)(C)c1cc(-c2cncc(-c3ccc(C(=O)N4CCC(O)C(F)(F)C4)cc3Cl)c2)ccn1 (stereo not drawn)	28.1 min	88.6 min	10 to 60 µg/mL (≈ 20.6 to 123 µM)
CC(C)(C)c1cc(-c2cncc(-c3ccc(C(=O)N4CCC(F)C(O)C4)cc3Cl)c2)ccn1 (stereo not drawn)	12.2 min	21.7 min	10 to 60 µg/mL (≈ 21.4 to 128 µM)
CC(C)(C)c1cc(-c2cncc(-c3ccc(C(=O)N4CCC4C(C)(C)O)cc3Cl)c2)ccn1 (stereo not drawn)	59 min	38.3 min	10 to 60 µg/mL (≈ 21.6 to 129 µM)
CC(C)(C)c1cc(-c2cncc(-c3ccc(C(=O)N4CC(C(C)(C)O)C4)cc3Cl)c2)ccn1	7.35 min	12.4 min	10 to 60 µg/mL (≈ 21.6 to 129 µM)
CS(=O)(=O)Nc1ccc(-c2cncc(-c3ccnc(C4CC4)c3)c2)c(Cl)c1	112 min	86.7 min	< 10 µg/mL
CC(C)OC(=O)Nc1ccc(-c2cncc(-c3ccnc(C4CC4)c3)c2)c(Cl)c1	120 min	81.1 min	< 10 µg/mL
CC(C)OC(=O)N(C)c1ccc(-c2cncc(-c3ccnc(C(C)(C)C)c3)c2)c(Cl)c1	63.6 min	105 min	< 10 µg/mL
CC(C)(C)c1cc(-c2cncc(-c3ccc(C(=O)N4CC5(CC(O)C5)C4)cc3Cl)c2)ccn1	1.79 min	120 min	10 to 60 µg/mL (≈ 21.6 to 130 µM)
CC(C)(C)c1cc(-c2cncc(-c3ccc(C(=O)N4CCC[C@@H]4CO)cc3Cl)c2)ccn1	10.1 min	32 min	10 to 60 µg/mL (≈ 22.2 to 133 µM)
CC(C)(C)c1cc(-c2cncc(-c3ccc(C(=O)N4CCC[C@H]4CO)cc3Cl)c2)ccn1	5.52 min	28.6 min	10 to 60 µg/mL (≈ 22.2 to 133 µM)
CC1(O)CCN(C(=O)c2ccc(-c3cncc(-c4ccnc(C(C)(C)C)c4)c3)c(Cl)c2)C1 (stereo not drawn)	12.9 min	28 min	10 to 60 µg/mL (≈ 22.2 to 133 µM)
CC(C)(C)c1cc(-c2cncc(-c3ccc(C(=O)N4CC[C@H](O)C4)cc3Cl)c2)ccn1	14.4 min	38.7 min	10 to 60 µg/mL (≈ 22.9 to 138 µM)
CC(C)(C)c1cc(-c2cncc(-c3ccc(C(=O)N4CC[C@@H](O)C4)cc3Cl)c2)ccn1	5.01 min	31.5 min	10 to 60 µg/mL (≈ 22.9 to 138 µM)
CC1(O)CN(C(=O)c2ccc(-c3cncc(-c4ccnc(C(C)(C)C)c4)c3)c(Cl)c2)C1	6.72 min	39.8 min	10 to 60 µg/mL (≈ 22.9 to 138 µM)
CC(C)(C)c1cc(-c2cncc(-c3ccc(C(=O)N4CCC(F)CC4)cc3Cl)c2)ccn1	11 min	11 min	< 10 µg/mL
CC(C)(C)c1cc(-c2cncc(-c3ccc(C(=O)N4CC5C(O)C5C4)cc3Cl)c2)ccn1 (stereo not drawn)	3.17 min	20 min	10 to 60 µg/mL (≈ 22.3 to 134 µM)
CC(C)(C)c1cc(-c2cncc(-c3ccc(NC(=O)N4CCC(O)CC4)cc3Cl)c2)ccn1	19.6 min	> 120 min	< 10 µg/mL
O=C(c1ccc(-c2cncc(-c3ccnc(C4CC4)c3)c2)c(Cl)c1)N1CCC(O)CC1	36.5 min	54.9 min	10 to 60 µg/mL (≈ 23 to 138 µM)
CC(C)(C)c1cc(-c2cncc(-c3ccc(NS(=O)(=O)CC(F)(F)F)cc3Cl)c2)ccn1	6.03 min	> 120 min	< 10 µg/mL
CC1(O)CCC(C(=O)c2ccc(-c3cncc(-c4ccnc(C(C)(C)CO)c4)c3)c(Cl)c2)CC1 (stereo not drawn)	10 min	63.6 min	10 to 60 µg/mL (≈ 20.9 to 125 µM)
